Experiment [1] concerns the target T1, Discoidin domain-containing receptor 2 (Homo sapiens, UniProt Q16832).
T1 sequence (Q16832 whole entry): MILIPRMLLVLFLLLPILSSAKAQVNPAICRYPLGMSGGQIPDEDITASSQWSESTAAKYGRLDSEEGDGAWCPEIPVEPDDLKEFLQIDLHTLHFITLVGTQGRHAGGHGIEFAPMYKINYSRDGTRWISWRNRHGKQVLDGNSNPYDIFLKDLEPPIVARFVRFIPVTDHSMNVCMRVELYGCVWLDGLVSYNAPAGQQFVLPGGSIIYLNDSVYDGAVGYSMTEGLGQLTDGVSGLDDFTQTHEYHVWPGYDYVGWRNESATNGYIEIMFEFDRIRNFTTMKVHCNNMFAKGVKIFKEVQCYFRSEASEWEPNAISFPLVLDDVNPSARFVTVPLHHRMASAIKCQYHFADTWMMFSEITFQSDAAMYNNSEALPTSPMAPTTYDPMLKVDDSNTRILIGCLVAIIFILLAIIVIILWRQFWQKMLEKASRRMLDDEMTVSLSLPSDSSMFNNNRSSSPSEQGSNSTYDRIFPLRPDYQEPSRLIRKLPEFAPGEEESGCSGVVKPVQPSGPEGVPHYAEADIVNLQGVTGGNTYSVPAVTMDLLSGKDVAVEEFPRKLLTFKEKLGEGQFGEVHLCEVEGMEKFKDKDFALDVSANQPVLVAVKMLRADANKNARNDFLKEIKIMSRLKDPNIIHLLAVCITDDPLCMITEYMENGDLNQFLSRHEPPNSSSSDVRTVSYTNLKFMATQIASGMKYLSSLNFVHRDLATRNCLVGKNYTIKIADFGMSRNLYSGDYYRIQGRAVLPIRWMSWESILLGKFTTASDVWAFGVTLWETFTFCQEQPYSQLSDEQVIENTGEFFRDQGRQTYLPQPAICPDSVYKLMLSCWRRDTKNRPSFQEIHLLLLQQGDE
Put plainly: DDR1 and DDR2 Biochemical Assay. The procedure:
(§1) The capacity of compounds to bind to DDR1 and DDR2 was quantified using a LanthaScreen Eu Kinase Binding Assay. Recombinant human DDR1 (2.5 nM; aa440-876 containing a GST tag) and DDR2 (1.75 nM; aa427-855 containing a GST tag) were diluted in assay buffer (50 mM HEPES pH7.3, 10 mM MgCl2, 1 mM EGTA and 0.01% Tween) with various concentrations of compound in a 384-well plate and a volume of 5 uL. After a 30-minute incubation at room temperature, 2.5 uL of Eu-anti GST antibody (diluted to 1 nM in assay buffer) plus Kinase Tracer 178 (diluted in assay buffer to 5 nM for DDR1 and 10 nM for DDR2) were added to the plate. Following 60-minute incubation at room temperature, time-resolved fluorescence was measured on a BMG Labtech PHERAstar plate reader. DMSO (1%) and reference compound (1 μM) were used to generate the Max and Min assay signals, respectively. Data was analysed using a four-parameter logistic model to calculate IC50 values, with at least two independent replicates were performed for each compound.

The target in experiment [2] is Epithelial discoidin domain-containing receptor 1 (Homo sapiens, UniProt Q08345). Put plainly: DDR1 and DDR2 Biochemical Assay. The procedure:
as §1

Our source for the IC50 values is BindingDB's records for patent US20260055102 (Redx Pharma, 2026).

Structures are written as SMILES.

Epithelial discoidin domain-containing receptor 1, sequence (Q08345 whole entry, the tested form may be a part): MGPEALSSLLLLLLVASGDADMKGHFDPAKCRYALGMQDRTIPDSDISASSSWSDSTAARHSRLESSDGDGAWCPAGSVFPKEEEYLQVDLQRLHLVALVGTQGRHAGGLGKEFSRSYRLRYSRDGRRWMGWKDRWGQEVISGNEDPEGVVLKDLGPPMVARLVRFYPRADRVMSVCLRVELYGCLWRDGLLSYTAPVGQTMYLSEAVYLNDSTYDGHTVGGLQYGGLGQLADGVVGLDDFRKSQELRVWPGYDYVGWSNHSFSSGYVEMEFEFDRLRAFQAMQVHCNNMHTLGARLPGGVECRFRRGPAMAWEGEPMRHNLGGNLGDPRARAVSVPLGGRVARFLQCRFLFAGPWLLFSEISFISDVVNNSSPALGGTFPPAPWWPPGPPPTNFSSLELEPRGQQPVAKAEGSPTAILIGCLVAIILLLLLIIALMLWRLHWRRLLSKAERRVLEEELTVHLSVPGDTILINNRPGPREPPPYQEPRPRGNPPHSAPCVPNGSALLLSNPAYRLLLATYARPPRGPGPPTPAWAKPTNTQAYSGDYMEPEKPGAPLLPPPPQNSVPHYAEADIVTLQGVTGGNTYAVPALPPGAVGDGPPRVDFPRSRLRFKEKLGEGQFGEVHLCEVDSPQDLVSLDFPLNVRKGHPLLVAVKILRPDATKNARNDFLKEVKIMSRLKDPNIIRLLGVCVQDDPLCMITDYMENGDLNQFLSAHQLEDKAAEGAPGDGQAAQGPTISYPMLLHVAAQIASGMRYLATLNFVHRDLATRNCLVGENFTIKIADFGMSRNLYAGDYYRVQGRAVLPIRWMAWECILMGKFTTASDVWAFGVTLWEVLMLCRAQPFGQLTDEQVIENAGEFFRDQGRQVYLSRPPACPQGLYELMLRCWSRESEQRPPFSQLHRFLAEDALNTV

The term IC50 denotes the midpoint of a concentration-inhibition curve. Lower therefore signals higher potency. The molecule `Cc1cccc2c1n(-c1ccc(-c3cncc4c3cnn4C)cc1)c(=O)n2CC(=O)N1CCC[C@H]1CF` [US20260055102, Example 26] came in with an IC50 in experiment [1] of more than 1000 nM.

In turn, `Cc1cccc2c1n(-c1ccc(-c3cncc4c3cnn4C)cn1)c(=O)n2CC(=O)N1CCO[C@H](C(F)(F)F)C1` [US20260055102, Example 61] showed an IC50 in experiment [2] of less than 10 nM.

For `CN(C)c1cccc2c1n(-c1ccc(-c3cncc4c3cnn4C)cc1)c(=O)n2CC(=O)NCC(F)(F)F` [US20260055102, Example 80], the IC50 in experiment [1] is more than 1000 nM.

For `Cc1nc(-n2c(=O)n(CC(=O)NCC(F)(F)F)c3cccc(C)c32)cnc1-c1cncc2c1cnn2C` [US20260055102, Example 100], the IC50 in experiment [2] and in experiment [1] was more than 1000 nM throughout.
